Earlier results, collected in paper PMC12114947, “Evaluation of Violacein Metabolic Stability and Metabolite Identification in Human, Mouse, and Rat Liver Microsomes” (Pharmaceutics, 2025).
Like-named read-outs stand apart in the source and are kept apart here.

Tests used:
[1] = cited from earlier work
[2] = cited from earlier work; remark: listed apart in the source
[3] = cited from earlier work; remark: listed apart in the source
[4] = set-up: method as in PMID 9408857; conditions: rats; cited from earlier work
[5] = set-up: method as in PMID 9408857; conditions: dogs; cited from earlier work
[6] = set-up: method as in PMID 9408857; conditions: rabbits; cited from earlier work
[7] = set-up: method as in PMID 9408857; conditions: humans; cited from earlier work
[8] = set-up: method as in PMID 38399311; conditions: liver microsomes, rats; cited from earlier work
[9] = set-up: method as in PMID 38399311; conditions: liver microsomes, mice; cited from earlier work
[10] = set-up: method as in PMID 38399311; conditions: liver microsomes, humans; cited from earlier work
[11] = set-up: method as in PMID 12920490, PMID 24002099, PMID 10445386; conditions: based on the human hepatic microsomal pathway; cited from earlier work
[12] = cited from earlier work; remark: listed apart in the source
[13] = cited from earlier work; remark: listed apart in the source
[14] = cited from earlier work; remark: listed apart in the source

Cc1ncc2n1-c1ccc(Cl)cc1C(c1ccccc1F)=NC2 [midazolam]
CLint, in vivo ([1]; rat): 79.2 mL/min/kg
t1/2 ([1]; rats): about 31 min
CLint, in vivo ([2]; human): 6.67 mL/min/kg
t1/2 ([2]; humans): 1.85 h

OC(c1cc(C(F)(F)F)nc2c(C(F)(F)F)cccc12)C1CCCCN1 (stereo not shown) [mefloquine]
Clearance ([3]; in vivo): 0.33 to 0.83 mL/min/kg

CNS(=O)(=O)Cc1ccc2[nH]cc(CCN(C)C)c2c1 [sumatriptan]
Clearance [4]: 44.7 mL/min/kg
Clearance [5]: 14 mL/min/kg
Clearance [6]: 26 mL/min/kg
Clearance [7]: approximately 1.10 L/h/kg

CCCC(NCC)C(=O)c1ccccc1 (stereo not shown) [N-ethyl pentedrone]
t1/2 [8]: 0.202 h
t1/2 [9]: 3.12 h
t1/2 [10]: 12.8 h

COc1cc(NC(C)CCCN)c2ncccc2c1 (stereo not shown) [primaquine]
Estimated CLint, in vivo [11]: approximately 0.017 mL/min/kg

CCN(CC)CCCC(C)Nc1ccnc2cc(Cl)ccc12 (stereo not shown) [chloroquine]
Clearance [3]: 1.5 to 1.7 mL/min/kg

CO[C@H]1O[C@@H]2O[C@@]3(C)CC[C@H]4[C@H](C)CC[C@@H]([C@H]1C)[C@@]24OO3 [artemether]
Clearance ([3]; artemether alone): 281.3 ± 67.3 mL/min/kg
Clearance ([3]; co-administered with pyronaridine): 466.7 ± 36 mL/min/kg

CCCCN(CCCC)CC(O)c1cc(Cl)cc2c1-c1ccc(Cl)cc1/C2=C/c1ccc(Cl)cc1 (stereo not shown) [lumefantrine]
t1/2 ([12]; antimalarials): 72 to 144 h

NC(Cc1cc(I)c(Oc2cc(I)c(O)c(I)c2)c(I)c1)C(=O)O (stereo not shown) [thyroxine]
CLint, in vitro ([13]; rat 1): 1.08 mL/min/10^6 cells
CLint, in vitro ([13]; rat 2): 0.75 mL/min/10^6 cells
CLint, in vitro ([14]; human donor 1364): 0.61 mL/min/10^6 cells
CLint, in vitro ([14]; human donor Hu1362): 0.56 mL/min/10^6 cells

C[C@@H]1CC[C@H]2[C@@H](C)C(=O)O[C@@H]3O[C@@]4(C)CC[C@@H]1[C@]32OO4 [artemisinin]
t1/2 ([12]; in vivo): 1 to 2 h
